The results in this text go back to PubChem BioAssay (NCI).

Assay in all cases: NCI tumour cell line growth inhibition, 48 h
The test system of assay [1] is DU-145 prostate.
The test system of assay [2] is SK-MEL-2 melanoma.
In assay [3] the test system is MCF7 breast.
Assay [4] deals with SF-268 CNS.
Assay [5] relates to HCT-116 colon.
Assay [6] deals with HS 578T breast.
Assay [7] concerns OVCAR-4 ovarian.
For assay [8], the system named is BT-549 breast.
Assay [9] deals with KM12 colon.
Assay [10] deals with SNB-19 CNS.
In assay [11] the test system is MALME-3M melanoma.
Assay [12] deals with NCI-H522 lung.
In assay [13] the test system is SR leukemia.
For assay [14], the system named is SF-539 CNS.

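Grown in 96-well plates, cells were treated for 48 hours with each compound at five concentrations. Insufficient inhibition: endpoint recorded as highest concentration tested. TGI: total growth inhibition.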 Bounds are passed on as bounds.

On to `Cc1ccc2c(=O)cc(-c3sc4ccccc4c3C)[nH]c2n1`, for which the TGI is 65.9 µM in assay [1]; more than 100 µM in assay [2]; more than 100 µM in assay [3]; 69.7 µM in assay [4]; 55.6 µM in assay [5]; 51.7 µM in assay [6]. Also, the TGI in [7] is 54 µM; in assay [8], 44.7 µM; in [9], 36.4 µM; in assay [10], more than 100 µM; in [11], 41.6 µM; in [12] it was 42.3 µM.

On to `CC1(C)O[C@@H](CBr)C[C@H](C[C@H]2C[C@@H](O)C[C@@H](CCOCc3ccccc3)O2)O1`, for which the TGI in assay [1] was 61.8 µM; in assay [2], 32 µM; in assay [3], 46.2 µM; in assay [4], 39.2 µM; in assay [5] it was 45.4 µM; in assay [13] it was more than 100 µM. Besides, the TGI in [6] amounted to 47.7 µM; in [7] it was 41.7 µM; in assay [9], 40.7 µM; in [10] it was 61.8 µM; in assay [11] it was 35.1 µM; in assay [12], 35.4 µM.

Take `CC(C)(C)OC(=O)N(CCCCNCc1ccc2ccccc2c1)CCCNCc1ccc2ccccc2c1`: the TGI in [1] turned out to be 3.1 µM; in [14] it was 2.97 µM; in [4] it was 3.29 µM; in assay [5], 2.4 µM; in assay [6], 3.3 µM; in assay [7] it was 3.19 µM. In addition, the TGI in assay [8] was 3.25 µM; in [9] it was 2.73 µM; in [10], 3.22 µM; in [12], 3.07 µM.

Consider `c1ccc2cc3c(cc2c1)nc1ccccn13`, for which the TGI in assay [1], in assay [14], in assay [3], in assay [4], in assay [5] and in [13] was more than 100 µM throughout. Further, the TGI in assay [6], in assay [8], in assay [9], in [10] and in assay [11] was more than 100 µM in each case.

As for `COC(=O)c1c(-c2ccccc2)c2sc3ccccc3n2c1N`, the TGI in assay [1] was more than 100 µM; in assay [14], more than 100 µM; in assay [2] it was 70.7 µM; in [3] it was more than 100 µM; in assay [4] it was more than 100 µM; in assay [5], more than 100 µM. In addition, the TGI in assay [13] is more than 100 µM; in assay [7] it was more than 100 µM; in [8], more than 100 µM; in assay [9], 88.8 µM; in [10], more than 100 µM; in [11], 68.1 µM. For the same molecule, the TGI in assay [12] came to 73.2 µM.

For the molecule `CC(C)C(NCc1c(O)ccc2c(-c3ccccc3)cc(=O)oc12)C(=O)O` (centres undefined), the TGI in [1], in [14], in assay [2], in assay [3], in [4] and in [5] was more than 100 µM throughout. In addition, the TGI in assay [13], in assay [6], in assay [7], in assay [9], in assay [10] and in [11] was more than 100 µM each time. This molecule also came in with a TGI in assay [12] of more than 100 µM.

As for `O=c1ccn(C2OC(CN(O)CCC3C(CO)OC(n4ccc(=O)[nH]c4=O)C3O)C(O)C2O)c(=O)[nH]1` (centres undefined), the TGI in assay [1], in assay [2], in assay [3], in assay [4], in [5] and in assay [6] was more than 100 µM in each case. Also, the TGI in assay [7], in assay [8], in [9], in [10] and in assay [11] was more than 100 µM throughout.

Turning to `N#CC(C#N)=Cn1c(=S)[nH]c2ccccc21`, the TGI in assay [1], in assay [14], in assay [2], in assay [3], in assay [4] and in assay [5] was more than 100 µM each time. Besides, the TGI in [13], in assay [6], in assay [7], in assay [9], in [10] and in [11] was more than 100 µM in each case. In addition, in assay [12], the TGI was more than 100 µM.

Consider `CCN(CC)CCO/N=C1/C=C2CCC3C(CC[C@@]4(C)C3CC[C@]4(C)O)[C@@]2(C)CC1` (some centres undefined), for which the TGI in assay [1] came out at 34.5 µM; in [14] it was 14.9 µM; in assay [2] it was 36.6 µM; in [3], 80.1 µM; in [4], 31.2 µM; in assay [5], 16.7 µM. Also, the TGI in [6] was 33.7 µM; in [7], more than 100 µM; in [8], 39.1 µM; in [9] it was 18.9 µM; in assay [10], 45.4 µM; in assay [11], 15.6 µM. In addition, the TGI in assay [12] came out at 6.07 µM.

On to `CC(C)C(NC(=O)C(Cc1ccccc1)NC(=O)[C@H]1CCC[C@H]1NC(=O)C(N)Cc1ccc(O)cc1)C(N)=O` (some centres undefined), for which the TGI in assay [1], in assay [14], in assay [2], in assay [3], in assay [4] and in assay [5] was more than 100 µM throughout. Moreover, the TGI in assay [13], in assay [6], in assay [7], in assay [9], in assay [10] and in assay [11] was more than 100 µM in each case. In addition, in assay [12], the TGI was more than 100 µM.

For `CCCC[C@H]1CCN2C[C@@H](O)[C@@H](O)[C@H]2[C@@H]1O`, the TGI in assay [1], in assay [14], in assay [2], in assay [3], in assay [4] and in assay [5] was more than 100 µM throughout. Moreover, the TGI in assay [6], in assay [7], in assay [8], in assay [9], in [10] and in assay [11] was more than 100 µM in each case. The same molecule had a TGI in assay [12] of more than 100 µM.
